Columns and labels:
hERG channel = target: T1, hERG channel (Homo sapiens, UniProt Q12809); test: hERG electrophysiology, automated whole-cell patch clamp (Patchliner); format: cell-based
T1 construct: expressed in transfected cells
Experimental: This assay is used to evaluate the disclosed compounds' inhibition activities against the hERG channel.
CHO-K1 cells stably expressing hERG were grown in Ham's F-12 Medium with glutamine containing 10% heat-inactivated FBS, 1% penicillin/streptomycin, hygromycin (100 μg/ml) and G418 (100 μg/ml). Cells were grown in culture flasks at 37° C. in a 5% CO2-humidified incubator.
The cells were bathed in an extracellular solution containing 140 mM NaCl, 4 mM KCl, 2 mM CaCl2), 1 mM MgCl2, 5 mM glucose, and 10 mM HEPES; pH adjusted to 7.4 with NaOH; 295-305 mOsm. The internal solution contained 50 mM KCl, 10 mM NaCl, 60 mM KF, 20 mM EGTA, and 10 mM HEPES; pH adjusted to 7.2 with KOH; 285 mOsm. All compounds were dissolved in DMSO at 30 mM. Compound stock solutions were freshly diluted with external solution to concentrations of 30 nM, 100 nM, 300 nM, 1 μM, 3 μM, 10 μM, 30 μM and 100 μM. The highest content of DMSO (0.3%) was present in 100 μM.
The voltage protocol (see Table 3) was designed to simulate voltage changes during a cardiac action potential with a 300 ms depolarization to +20 mV (analogous to the plateau phase of the cardiac action potential), a repolarization for 300 ms to −50 mV (inducing a tail current) and a final step to the holding potential of −80 mV. The pulse frequency was 0.3 Hz. Control (compound-free) and compound pulse trains for each compound concentration applied contained 70 pulses.
Whole-cell current recordings and compound application were enabled by means of an automated patch clamp platform Patchliner (Nanion). EPC 10 patch clamp amplifier (HEKA) along with Patchmaster software (HEKA Elektronik Dr. Schulze GmbH) was used for data acquisition. Data were sampled at 10 kHz without filtering. Increasing compound concentrations were applied consecutively to the same cell without washouts in between.
AUC and PEAK values were obtained with Patchmaster (HEKA Elektronik Dr. Schulze GmbH). To determine IC50 the last single pulse in the pulse train corresponding to a given compound concentration was used. Obtained AUC and PEAK values in the presence of compound were normalized to control values in the absence of compound. Using Origin (OridinLab), IC50 was derived from data fit to Hill equation: Icompound/Icontrol=(100-A)/(1+([compound]/IC50)nH)+A, where IC50 is the concentration at which current inhibition is half-maximal, [compound] is the applied compound concentration, A is the fraction of current that is not blocked and nH is the Hill coefficient.

Kv1.3 potassium channel = target: T2, Kv1.3 potassium channel (Homo sapiens, UniProt P22001); test: Kv1.3 potassium channel blocker activity, automated whole-cell patch clamp (Patchliner); format: cell-based
T2 construct: expressed in transfected cells
Outline: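 IC50 came from Hill-equation fits of peak and AUC currents from the final pulse at each concentration, normalized to compound-free control. Compounds applied consecutively at 30 nM to 100 μM (up to 0.3% DMSO) to Kv1.3-expressing CHO-K1 cells, P/4 leak subtraction. Pulses were +40 mV, 100 ms, from −90 mV holding, at 0.1 Hz on Patchliner.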

[1] = hERG channel, whole-cell patch clamp
[2] = Kv1.3 potassium channel, whole-cell patch clamp
[3] = CHO-K1 cells stably expressing hERG, +20 mV 300 ms, -50 mV 300 ms tail current, 0.3 Hz
[4] = CHO-K1 cells stably expressing Kv1.3, 100 ms pulses from -90 mV to +40 mV, 0.1 Hz

T1 sequence (Q12809 whole entry): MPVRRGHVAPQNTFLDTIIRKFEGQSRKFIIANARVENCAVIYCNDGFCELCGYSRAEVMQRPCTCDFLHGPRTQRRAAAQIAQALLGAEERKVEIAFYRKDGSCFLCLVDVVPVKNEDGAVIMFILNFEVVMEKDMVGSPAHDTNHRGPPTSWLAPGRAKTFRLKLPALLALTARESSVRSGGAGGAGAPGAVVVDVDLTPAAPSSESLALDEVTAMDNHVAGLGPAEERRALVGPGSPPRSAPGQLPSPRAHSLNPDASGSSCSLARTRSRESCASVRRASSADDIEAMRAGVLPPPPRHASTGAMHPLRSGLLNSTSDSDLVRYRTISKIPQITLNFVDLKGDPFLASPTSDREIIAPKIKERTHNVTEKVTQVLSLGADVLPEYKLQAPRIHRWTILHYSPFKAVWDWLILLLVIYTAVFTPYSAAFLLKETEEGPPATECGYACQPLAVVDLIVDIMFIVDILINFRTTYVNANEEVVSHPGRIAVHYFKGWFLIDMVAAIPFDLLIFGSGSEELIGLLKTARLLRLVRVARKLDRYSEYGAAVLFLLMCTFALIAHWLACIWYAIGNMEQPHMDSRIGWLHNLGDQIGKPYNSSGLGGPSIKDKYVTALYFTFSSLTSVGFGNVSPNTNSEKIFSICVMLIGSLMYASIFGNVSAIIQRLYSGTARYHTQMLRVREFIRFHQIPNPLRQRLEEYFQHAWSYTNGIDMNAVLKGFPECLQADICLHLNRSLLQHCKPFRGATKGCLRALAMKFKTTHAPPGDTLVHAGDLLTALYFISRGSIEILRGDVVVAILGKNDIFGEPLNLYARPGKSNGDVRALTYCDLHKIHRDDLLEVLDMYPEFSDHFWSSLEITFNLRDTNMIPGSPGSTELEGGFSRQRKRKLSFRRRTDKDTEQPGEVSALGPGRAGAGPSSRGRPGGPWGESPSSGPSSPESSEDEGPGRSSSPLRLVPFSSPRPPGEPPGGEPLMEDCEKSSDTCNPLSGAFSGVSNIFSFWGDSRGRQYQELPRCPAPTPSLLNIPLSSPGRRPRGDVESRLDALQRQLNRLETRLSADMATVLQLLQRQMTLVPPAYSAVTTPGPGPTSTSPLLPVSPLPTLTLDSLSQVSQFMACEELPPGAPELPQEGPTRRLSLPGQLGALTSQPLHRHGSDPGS
T2 sequence (P22001 whole entry): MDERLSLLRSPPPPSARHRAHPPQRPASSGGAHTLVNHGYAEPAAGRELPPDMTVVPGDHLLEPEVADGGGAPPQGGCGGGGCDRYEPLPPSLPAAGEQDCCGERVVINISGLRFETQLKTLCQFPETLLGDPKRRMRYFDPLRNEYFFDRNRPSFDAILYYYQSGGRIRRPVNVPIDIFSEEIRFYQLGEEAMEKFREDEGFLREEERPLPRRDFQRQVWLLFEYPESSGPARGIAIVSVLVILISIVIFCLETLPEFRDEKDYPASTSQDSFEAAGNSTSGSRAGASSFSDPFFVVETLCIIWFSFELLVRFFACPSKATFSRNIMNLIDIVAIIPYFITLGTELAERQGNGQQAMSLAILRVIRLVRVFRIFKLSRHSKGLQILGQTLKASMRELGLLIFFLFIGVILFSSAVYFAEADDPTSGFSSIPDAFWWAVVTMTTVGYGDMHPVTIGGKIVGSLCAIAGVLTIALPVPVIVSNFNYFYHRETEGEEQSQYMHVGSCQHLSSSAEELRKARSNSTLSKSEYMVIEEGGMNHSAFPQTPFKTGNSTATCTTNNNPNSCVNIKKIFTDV

SMILES | IC50 (Kv1.3 potassium channel; [2]) [µM] | IC50 (Kv1.3 potassium channel; [4]) [µM] | IC50 (hERG channel; [1]) [µM] | IC50 (hERG channel; [3]) [µM]
C[C@@H]1CC(=O)N2C[C@@H](c3c(O)ccc(Cl)c3Cl)C[C@H]2CN1C(=O)CO [Compound 93, (3R,8R,9aS)-8-(2,3-dichloro-6-hydroxyphenyl)-2-(2-hydroxyacetyl)-3-methyl-hexahydro-1H-pyrrolo[1,2-a][1,4]diazepin-5-one] | < 1 |  | < 30 | 
O=C1CN([C@H]2C[C@@](O)(CO)C2)C[C@@H]2C[C@H](c3c(O)ccc(Cl)c3Cl)CN12 (single isomer, unassigned; isomer 2) [Compound 164] | < 1 |  | > 30 | 
O=C1C[C@H](N2CC(O)C2)C[C@@H]2C[C@H](c3c(O)ccc(Cl)c3Cl)CN12 (single isomer, unassigned) [Compound 197] | < 1 |  | > 30 | 
COC[C@H](O)CN1CC(=O)N2C[C@@H](c3c(O)ccc(Cl)c3Cl)C[C@H]2C1 (single isomer, unassigned; isomer 2) [Compound 153] | < 1 |  | < 30 | 
O=C1CN(c2ncn[nH]2)C[C@@H]2C[C@H](c3c(O)ccc(Cl)c3Cl)CN12 [Compound 175, (7R,8aS)-7-(2,3-dichloro-6-hydroxyphenyl)-2-(1H-1,2,4-triazol-5-yl)hexahydropyrrolo[1,2-a]pyrazin-4(1H)-one] | < 1 |  | > 30 | 
O=C1C[C@H](N2CC(=O)N3C[C@@H](c4c(O)ccc(Cl)c4Cl)C[C@H]3C2)CN1 (single isomer, unassigned; isomer 2) [Compound 161] | < 1 |  | > 30 | 
O=C1CN(C(=O)C2(CO)CC2)C[C@@H]2C[C@H](c3c(O)ccc(Cl)c3Cl)CN12 [Compound 67, (7R,8aS)-7-(2,3-dichloro-6-hydroxyphenyl)-2-[1-(hydroxymethyl)cyclopro-panecarbonyl]-hexahydropyrrolo[1,2-a]pyrazin-4-one] | < 1 |  | > 30 | 
CN[C@H]1CC(=O)N2C[C@@H](c3c(O)ccc(Cl)c3Cl)C[C@H]2C1 (single isomer, unassigned) [Compound 199] | < 1 |  | > 30 | 
CNC(=O)CN1CC(=O)N2C[C@@H](c3c(O)ccc(Cl)c3Cl)C[C@H]2C1 [Compound 111, 2-[(7R,8aS)-7-(2,3-dichloro-6-hydroxyphenyl)-4-oxo-hexahydropyrrolo [1,2-a]pyrazin-2-yl]-N-methylacetamide] | < 1 |  | > 30 | 
O=C1CN([C@H]2COC[C@@H]2O)C[C@@H]2C[C@H](c3c(O)ccc(Cl)c3Cl)CN12 (relative stereo) [Compound 154, (7R,8aS)-7-(2,3-dichloro-6-hydroxyphenyl)-2-[(3S,4R)-rel-4-hydroxyoxolan-3-yl]-hexahydropyrrolo [1,2-a]pyrazin-4-one] | < 1 |  | > 30 | 
O=C1CN(C[C@H]2CNCCO2)C[C@@H]2C[C@H](c3c(O)ccc(Cl)c3Cl)CN12 [Compound 147, (7R,8aS)-7-(2,3-dichloro-6-hydroxyphenyl)-2-[(2R)-morpholin-2-ylmethyl]-hexahydropyrrolo [1,2-a]pyrazin-4-one] | < 1 |  | > 30 | 
CC[C@H](O)C(=O)N1CC(=O)N2CC[C@@H](c3c(O)ccc(Cl)c3Cl)C[C@H]2C1 [Compound 9, (8R,9aS)-8-(2,3-dichloro-6-hydroxyphenyl)-2-[(2S)-2-hydroxybutanoyl]-hexahydro-1H-pyrido[1,2-a]pyrazin-4-one] |  | < 1 |  | > 30
O=C1C(CN2CC(O)C2)OC[C@@H]2C[C@H](c3c(O)ccc(Cl)c3Cl)CCN12 (stereo partly drawn) [Compound 183, (8R,9aS)-8-(2,3-dichloro-6-hydroxyphenyl)-3-[(3-hydroxyazetidin-1-yl)methyl]-hexahydro-1H-pyrido[2,1-c][1,4]oxazin-4-one] | < 1 |  | < 30 | 
O=C1CN(CCO)C[C@@H]2C[C@H](c3c(O)ccc(Cl)c3Cl)CN12 [Compound 2, (7R,8aS)-7-(2,3-dichloro-6-hydroxyphenyl)-2-(2-hydroxyethyl)-hexahydropyrrolo[1,2-a]pyrazin-4-one] |  | < 1 |  | > 30
O=C1CN(C2CNC2)C[C@@H]2C[C@H](c3c(O)ccc(Cl)c3Cl)CN12 [Compound 129, (7R,8aS)-2-(azetidin-3-yl)-7-(2,3-dichloro-6-hydroxyphenyl)-hexahydropyrrolo [1,2-a]pyrazin-4-one] | < 1 |  | > 30 | 
O=C1CN(c2ccnc(CO)n2)C[C@@H]2C[C@H](c3c(O)ccc(Cl)c3Cl)CN12 [Compound 169, (7R,8aS)-7-(2,3-dichloro-6-hydroxyphenyl)-2-[2-(hydroxymethyl)pyrimidin-4-yl]-hexahydropyrrolo[1,2-a]pyrazin-4-one] | < 1 |  | > 30 | 
CCC[C@H](CO)C(=O)N1CC(=O)N2C[C@@H](c3c(O)ccc(Cl)c3Cl)C[C@H]2C1 [Compound 77, (7R,8aS)-7-(2,3-dichloro-6-hydroxyphenyl)-2-[(2R)-2-(hydroxymethyl)pentanoyl]-hexahydropyrrolo [1,2-a]pyrazin-4-one] | < 1 |  | > 30 | 
O=C1C[C@H](c2cn[nH]c2)C[C@@H]2C[C@H](c3c(O)ccc(Cl)c3Cl)CN12 (single isomer, unassigned) [Compound 216] | < 1 |  | < 10 | 
O=C(C1CNC1)N1CC(=O)N2CC[C@@H](c3c(O)ccc(Cl)c3Cl)C[C@H]2C1 (relative stereo) [Compound 32, (8S,9aR)-rel-2-(azetidine-3-carbonyl)-8-(2,3-dichloro-6-hydroxyphenyl)-hexahydro-1H-pyrido[1,2-a]pyrazin-4-one] |  | < 1 |  | > 30
CN(C)CC(=O)N1CC(=O)N2CC[C@@H](c3c(O)ccc(Cl)c3Cl)C[C@H]2C1 [Compound 40, (8R,9aS)-8-(2,3-dichloro-6-hydroxyphenyl)-2-[2-(dimethylamino)acetyl]-hexahydro-1H-pyrido[1,2-a]pyrazin-4-one] |  | < 1 |  | < 30

The next lines start with results.

IC50 (Kv1.3 potassium channel; [2]) [µM] | IC50 (Kv1.3 potassium channel; [4]) [µM] | SMILES | IC50 (hERG channel; [1]) [µM] | IC50 (hERG channel; [3]) [µM]
< 1 |  | C[C@H](O)[C@H]1OC(=O)N2C[C@@H](c3c(O)ccc(Cl)c3Cl)C[C@@H]12 (single isomer, unassigned) [Compound 258] | > 30 | 
< 1 |  | CNC[C@@H]1CC(=O)N2C[C@@H](c3c(O)ccc(Cl)c3Cl)C[C@H]2C1 (single isomer, unassigned) [Compound 239] | > 30 | 
< 1 |  | N[C@H]1CC2C[C@H](c3c(O)ccc(Cl)c3Cl)CN2C1=O (single isomer, unassigned) [Compound 248] | < 10 | 
< 1 |  | O=C1O[C@@H](CO)C[C@@H]2C[C@H](c3c(O)ccc(Cl)c3Cl)CN12 (single isomer, unassigned) [Compound 269] | > 30 | 
< 1 |  | O=C1O[C@@H](CN2CC(O)C2)[C@@H]2C[C@H](c3c(O)ccc(Cl)c3Cl)CN12 (single isomer, unassigned) [Compound 282] | < 30 | 
< 1 |  | O=C(NC[C@H]1OC(=O)N2C[C@@H](c3c(O)ccc(Cl)c3Cl)C[C@@H]12)C1CNC1 (single isomer, unassigned) [Compound 278] | > 30 | 
< 1 |  | C[C@]1(CO)OC(=O)N2C[C@@H](c3c(O)ccc(Cl)c3Cl)C[C@H]21 (single isomer, unassigned) [Compound 264] | > 30 | 
< 1 |  | O=C(CO)NC[C@@H]1OC(=O)N2C[C@@H](c3c(O)ccc(Cl)c3Cl)C[C@@H]12 (single isomer, unassigned) [Compound 274] | > 30 | 
< 1 |  | O=C(CO)NC[C@H]1OC(=O)N2C[C@@H](c3c(O)ccc(Cl)c3Cl)C[C@@H]12 (single isomer, unassigned) [Compound 275] | > 30 | 

Source: patent US20230049231A1 (priority 2019, published 2023)
